tested on: Cylas formicarius; assay: Insecticidal activity in adult Cylas formicarius elegantulus measured per insect after 24 hrs; assay type: functional

Point of comparison: C[C@@H]1CC(c2ccoc2)=C[C@]2(C1)C[C@H](C)C(=O)O2 [CAPRARIOLIDE A], LD50 0.902 mg. Against it:
- C[C@@H]1CC(c2ccoc2)=C[C@]2(C1)C[C@@H](C)C(=O)O2 [CAPRARIOLIDE B] — higher, 1.102 mg
- C=CCc1ccc(O)c(OC)c1 [EUGENOL] — lower, 0.605 mg
